This test relates to AB527-expressing cells. Kind of test: Effect of valeric acid on cell growth and antibody production. It counts as cell-based, Chinese Hamster. The conditions noted are these: for Maximum Viable Cell Density: 14 days; for Doubling Time (DT): in h (unit assumed). How it is done:
To determine the effect of valeric acid on cell growth, AB527-expressing cells were cultured in GIBCO-CD-CHO complete medium supplemented with valeric acid to a concentration of 0 mM, 1 mM, 2 mM, 4 mM, or 8 mM. Cells were cultured for 14 days and viable cell density, percent viability, and integral viable cell density were determined using a CEDEX automated cell counter on days 0, 3, 5, 7, 10, 13, and 14. Antibody production was determined for each group of cultured cells on day 14 by protein A HPLC.

The structures appear in SMILES notation.

In general, viability refers to a per cent measure of how many cells are alive, often set against a control. In the case of `CCCCC(=O)O` [Valeric Acid, valeric acid], the “Integral of Viable Cell Density (IVC)” value worked out at 6.74E+7 cells · day/mL (1 mM valeric acid), 6.55E+7 cells · day/mL (2 mM valeric acid), 6.72E+7 cells · day/mL (4 mM valeric acid) and 4.76E+7 cells · day/mL (8 mM valeric acid). Further, the “Specific Antibody Production Rate (Qp)” value runs as follows: (1 mM valeric acid) 58.44 mg/10^9 cells/day; (2 mM valeric acid) 54.45 mg/10^9 cells/day; (4 mM valeric acid) 52.24 mg/10^9 cells/day; (8 mM valeric acid) 56.16 mg/10^9 cells/day. Further, the “Maximum Viable Cell Density” value is given as 94.60 10^5/mL (1 mM valeric acid), 81.00 10^5/mL (2 mM valeric acid), 77.40 10^5/mL (4 mM valeric acid) and 54.40 10^5/mL (8 mM valeric acid). Moreover, the “Final Antibody Titer” value reads like this: (1 mM valeric acid, day 14) 4137.1 mg/L; (1 mM valeric acid, day 14, listed as valeric acid) 4137 mg/L; (2 mM valeric acid, day 14) 3706.7 mg/L; (4 mM valeric acid, day 14) 3600.1 mg/L; (8 mM valeric acid, day 14) 2760.4 mg/L. The “antibody titer higher than that of the control culture” value (1 mM valeric acid, day 14) turned out to be 36%. The “Doubling Time (DT)” value is, setting by setting: (1 mM valeric acid) 24.17; (2 mM valeric acid) 24.17; (4 mM valeric acid) 24.17; (8 mM valeric acid) 24.17. For the same compound, the maximum cell density (8 mM valeric acid, at day 7) was 5.4×10^6 cells/mL. Where the note is “8 mM valeric acid, at day 7”, this compound showed a viability of 67.4%.

The record behind these values is patent US8956832B2, “Cells expressing anti-GD2 antibodies and methods related thereto” (Morphotek, Inc., priority 2008, dated 2015).
